molecular target: T1, human heart chymase (Homo sapiens, UniProt P23946); experiment: Inhibitory activity on amidase activity of human heart chymase; type: biochemical; details: 5 nM chymase; succinyl-alanyl-alanyl-prolyl-phenylalanine-p-nitroanilide 2.5 mM; pH 9.0; Easson-Stedman plot; read-out: K^i (human heart chymase inhibitory activity)
T1 sequence (P23946 22-247): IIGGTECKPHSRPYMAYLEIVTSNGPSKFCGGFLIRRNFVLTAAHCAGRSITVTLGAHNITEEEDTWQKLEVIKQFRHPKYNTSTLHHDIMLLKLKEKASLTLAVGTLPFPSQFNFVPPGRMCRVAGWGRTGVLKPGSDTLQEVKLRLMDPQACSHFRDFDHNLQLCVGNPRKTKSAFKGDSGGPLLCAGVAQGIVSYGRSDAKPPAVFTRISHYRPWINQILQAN
Method: The effectiveness of the inhibitory activity of compound (I) of the present invention was evaluated based on the inhibitory activity on amidase activity of human heart chymase, which was determined as in the following.
The inhibitory activity was quantitatively determined through variation in fractional residual activity of the enzyme caused by the inventive compound in defined serial concentration (<×1, <×10, <×100-fold equivalents) relative to 5 nM chymase in the presence of synthetic substrate, succinyl-alanyl-alanyl-prolyl-phenylalanine-p-nitroanilide (final concentration 2.5 mM). The inhibitory effect was analyzed by least square regression of Easson-Stedman plot (Proc. Roy. Soc. B. 1936, 121, p. 141) utilizing bimolecular equilibrium reaction linearization formula. The inhibitory activity was evaluated by the apparent inhibitory constant (Kiapp) obtained by this analysis and inhibitory constant (Ki) calculated from final substrate concentration in the reaction mixture and Km values separately determined. The quantitative determination of initial rate of the enzyme reaction was spectrophotometrically detected in terms of an increased amount of p-nitroaniline at 405 nm produced by hydrolysis of the substrate. The chymase inhibitory activity of the compound of the present invention was calculated as ratio of residual activity in the presence of inhibitor relative to enzyme activity in the absence of inhibitor, and incorporation of the determination values was completed at a level less than initial rate guarantee absorbance at a concentration of the substrate used for the enzyme, after which analysis was performed.
The reaction mixture consisted of an Na2 B4 O7 (100 mM)-KH2 PO4 (50 mM) buffer (pH 9.0, 120 μl) containing 0.1% Triton-X100, the inventive compound dissolved in 20 μl of 10% dimethyl sulfoxide (DMSO), 10% bovine serum albumin dissolved in 20 μl of the same buffer, substrate dissolved in 20 μl of DMSO, and 20 μl of chymase, thus amounting to 200 μl in total.
Starting with the absorbance immediately after addition of the enzyme, increases in absorbance were recorded as a progressive curve taken precisely at equal time intervals.
From the above data, the difference between absorbances at completion of the reaction and immediately after addition was used to quantitatively determine the residual activity of the sample added with the inhibitor relative to a control wherein the inhibitor was not added. Alternatively, reaction rates of the control and the sample added with the inhibitor were calculated for certain time period (≥20 min) with successive shift (every 10 to 30 minutes) of the period, and the residual activity ratio was quantitatively determined and analyzed from the respective reaction rates averaged through the entire reaction time.

Going from `Nc1cnc(-c2ccc(F)cc2)n(CC(=O)NC(Cc2ccccc2)C(=O)C(F)(F)F)c1=O` (stereo not drawn) [Example 4, 2-[5-amino-2-(4-fluorophenyl)-6-oxo-1,6-dihydro-1-pyrimidyl]-N-(1-benzyl-3,3,3-trifluoro-2-oxopropyl)acetamide] to `Cc1ccc(-c2ncc(N)c(=O)n2CC(=O)NC(Cc2ccccc2)C(=O)C(F)(F)F)cc1` (stereo not drawn) [Example 6, 2-[5-amino-6-oxo-2-(p-tolyl)-1,6-dihydro-1-pyrimidyl]-N-(1-benzyl-3,3,3-trifluoro-2-oxopropyl)acetamide], the Ki rises from 4.1 µM to 7 µM (1.7-fold). The first binds more tightly here.

Going from `Nc1cnc(-c2ccccc2)n(CC(=O)NC(Cc2ccccc2)C(=O)C(F)(F)F)c1=O` (stereo not drawn) [Example 2, 2-(5-amino-6-oxo-2-phenyl-1,6-dihydro-1-pyrimidyl)-N-(1-benzyl-3,3,3-trifluoro-2-oxopropyl)acetamide] to `Cc1cccc(-c2ncc(NC(=O)OCc3ccccc3)c(=O)n2CC(=O)NC(Cc2ccccc2)C(=O)C(F)(F)F)c1` (stereo not drawn) [Example 7, 2-[5-benzyloxycarbonylamino-6-oxo-2-(m-tolyl)-1,6-dihydro-1-pyrimidyl]-N-(1-benzyl-3,3,3-trifluoro-2-oxopropyl)-acetamide], the Ki falls from 7.2 µM to 4.8 µM (1.5-fold). The second binds more tightly here.

First: O=C(Cn1c(-c2ccc(F)cc2)ncc(NC(=O)OCc2ccccc2)c1=O)NC(Cc1ccccc1)C(=O)C(F)(F)F (stereo not drawn) [Example 3, 2-[5-benzyloxycarbonylamino-2-(4-fluorophenyl)-6-oxo-1,6-dihydro-1-pyrimidyl]-N-(1-benzyl-3,3,3-trifluoro-2-oxopropyl)acetamide]
Second: Cc1ccc(-c2ncc(NC(=O)OCc3ccccc3)c(=O)n2CC(=O)NC(Cc2ccccc2)C(=O)C(F)(F)F)cc1 (stereo not drawn) [Example 5, 2-[5-benzyloxycarbonylamino-6-oxo-2-(p-tolyl)-1,6-dihydro-1-pyrimidyl]-N-(1-benzyl-3,3,3-trifluoro-2-oxopropyl)-acetamide]
The Ki of the first is 1.6-fold lower: 5.6 µM for the first, 8.7 µM for the second. The first binds more tightly here.

Reference: US5948785A, “Heterocyclic amide compounds and pharmaceutical use of the same” (The Green Cross Corporation, priority 1995, dated 1999)
